Experimental data as given in publication PMC4669708 (Cell Death & Disease, 2015).

How the values were obtained:
Experiment in all cases: c-ponatinib pulldown LC-MS/MS
Format in all cases: binding
[1] = molecular target: HSPA5 (Homo sapiens, UniProt P11021)
Method in brief: (§1)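 Spectral counts and search-engine scores from LC-MS/MS of tryptic eluates gave drug-protein specificity P-values. Eluates came from duplicate pulldowns of 10 mg lysate on 25 nmol immobilized c-ponatinib. Competition was the ratio of median counts with versus without free compound.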

[2] = molecular target: HCK (Homo sapiens, UniProt P08631)
Chain of HCK (P08631 whole entry): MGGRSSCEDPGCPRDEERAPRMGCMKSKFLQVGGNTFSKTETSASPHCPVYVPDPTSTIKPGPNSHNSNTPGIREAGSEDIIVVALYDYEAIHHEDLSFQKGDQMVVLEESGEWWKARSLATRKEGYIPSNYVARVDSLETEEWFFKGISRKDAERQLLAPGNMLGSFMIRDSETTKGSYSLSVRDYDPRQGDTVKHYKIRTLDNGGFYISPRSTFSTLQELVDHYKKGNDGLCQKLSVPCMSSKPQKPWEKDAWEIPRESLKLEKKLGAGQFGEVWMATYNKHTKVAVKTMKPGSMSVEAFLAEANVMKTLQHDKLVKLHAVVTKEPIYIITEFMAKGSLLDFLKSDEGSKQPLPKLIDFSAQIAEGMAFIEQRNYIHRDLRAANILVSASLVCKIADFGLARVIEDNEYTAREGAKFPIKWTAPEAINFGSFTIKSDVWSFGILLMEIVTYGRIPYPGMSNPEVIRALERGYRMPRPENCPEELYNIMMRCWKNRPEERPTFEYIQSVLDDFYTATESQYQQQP
Method in brief: as §1

[3] = molecular target: T1, GAK (Homo sapiens, UniProt O14976)
T1 sequence (O14976 1-1311): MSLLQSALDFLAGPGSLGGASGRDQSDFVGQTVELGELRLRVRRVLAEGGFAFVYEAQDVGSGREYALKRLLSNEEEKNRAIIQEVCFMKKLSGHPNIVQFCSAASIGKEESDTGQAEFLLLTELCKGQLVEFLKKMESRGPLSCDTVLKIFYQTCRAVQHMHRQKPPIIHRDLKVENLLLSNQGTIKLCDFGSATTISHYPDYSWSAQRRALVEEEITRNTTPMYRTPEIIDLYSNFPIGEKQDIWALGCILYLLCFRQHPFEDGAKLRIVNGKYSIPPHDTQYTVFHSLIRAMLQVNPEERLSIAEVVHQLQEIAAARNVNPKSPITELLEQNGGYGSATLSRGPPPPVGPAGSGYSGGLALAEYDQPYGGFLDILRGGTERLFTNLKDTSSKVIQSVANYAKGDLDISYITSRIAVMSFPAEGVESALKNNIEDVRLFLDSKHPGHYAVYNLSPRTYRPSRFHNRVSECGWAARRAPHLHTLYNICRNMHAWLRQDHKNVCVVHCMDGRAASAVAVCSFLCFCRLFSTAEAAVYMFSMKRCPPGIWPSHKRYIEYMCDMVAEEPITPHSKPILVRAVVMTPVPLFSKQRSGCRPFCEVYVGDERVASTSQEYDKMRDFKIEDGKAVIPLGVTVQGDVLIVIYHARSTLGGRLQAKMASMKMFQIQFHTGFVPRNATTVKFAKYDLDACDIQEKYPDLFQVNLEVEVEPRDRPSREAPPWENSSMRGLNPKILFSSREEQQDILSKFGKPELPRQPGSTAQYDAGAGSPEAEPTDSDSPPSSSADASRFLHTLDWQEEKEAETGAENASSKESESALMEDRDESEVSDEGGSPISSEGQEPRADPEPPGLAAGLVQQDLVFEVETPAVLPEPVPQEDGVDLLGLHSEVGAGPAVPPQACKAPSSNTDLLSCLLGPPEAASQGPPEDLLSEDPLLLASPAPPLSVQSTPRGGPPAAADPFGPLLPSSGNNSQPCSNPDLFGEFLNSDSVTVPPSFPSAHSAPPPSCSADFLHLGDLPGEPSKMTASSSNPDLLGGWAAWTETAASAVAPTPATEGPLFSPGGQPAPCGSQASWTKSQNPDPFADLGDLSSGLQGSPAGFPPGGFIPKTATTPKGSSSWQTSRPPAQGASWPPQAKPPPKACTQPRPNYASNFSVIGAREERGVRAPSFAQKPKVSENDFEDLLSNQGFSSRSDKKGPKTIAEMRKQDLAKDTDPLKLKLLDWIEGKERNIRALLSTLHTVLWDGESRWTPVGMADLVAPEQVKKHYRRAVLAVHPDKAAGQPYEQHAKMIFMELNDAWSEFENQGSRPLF
Method in brief: as §1

Chain of HSPA5 (P11021 19-654): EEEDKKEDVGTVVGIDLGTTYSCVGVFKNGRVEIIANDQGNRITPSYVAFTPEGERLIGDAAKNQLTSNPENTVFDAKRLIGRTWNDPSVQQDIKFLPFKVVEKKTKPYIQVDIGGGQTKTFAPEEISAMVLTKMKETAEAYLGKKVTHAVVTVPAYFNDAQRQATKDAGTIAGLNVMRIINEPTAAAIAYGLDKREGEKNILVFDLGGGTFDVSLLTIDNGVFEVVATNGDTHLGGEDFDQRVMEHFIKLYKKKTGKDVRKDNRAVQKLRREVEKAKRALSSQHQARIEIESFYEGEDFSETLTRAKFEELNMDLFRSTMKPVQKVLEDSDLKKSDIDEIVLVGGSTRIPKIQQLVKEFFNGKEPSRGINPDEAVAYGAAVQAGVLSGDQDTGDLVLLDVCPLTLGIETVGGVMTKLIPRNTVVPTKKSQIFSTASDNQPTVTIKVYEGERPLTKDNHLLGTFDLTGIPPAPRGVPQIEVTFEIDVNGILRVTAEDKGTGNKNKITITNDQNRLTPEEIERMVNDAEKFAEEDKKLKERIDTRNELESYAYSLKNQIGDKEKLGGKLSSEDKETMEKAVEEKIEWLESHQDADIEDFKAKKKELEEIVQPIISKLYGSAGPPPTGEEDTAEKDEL

Av. SC comp. ([1]; + free ponatinib): 2.75 | Total SC comp. ([1]; + free ponatinib): 11 | Av. SC ([1]; no competitor): 7 | Total SC ([1]; no competitor): 28 | Av. SC comp. ([2]; + free ponatinib): 0 | Total SC comp. ([2]; + free ponatinib): 0 | Av. SC ([2]; no competitor): 6 | Total SC ([2]; no competitor): 24 | Av. SC comp. ([3]; + free ponatinib): 10.25 | Total SC comp. ([3]; + free ponatinib): 41 | Av. SC ([3]; no competitor): 22.75 | Total SC ([3]; no competitor): 91
Structure (SMILES): Cc1ccc(C(=O)Nc2ccc(CN3CCN(CCCN)CC3)c(C(F)(F)F)c2)cc1C#Cc1cnc2cccnn12 [c-ponatinib]
